What was measured:
[1] = molecular target: T1, Human PDE7 (Homo sapiens, UniProt Q13946); test: PDE7 enzymatic test ([3H]-cAMP hydrolysis, TLC on PEI cellulose); format: biochemical; details: human PDE7 partially purified from HUT-78; cAMP concentration about 4 times the Km; 10 μM rolipram present
T1 construct: Human PDE7 was partially purified from the cell line HUT-78; endogenous in cells; host or cells: HUT-78 (human T-cell line), partially purified enzyme preparation
Experimental: (§1) The capacity of the compounds of formula (I) to inhibit PDE7 is measured by means of an enzymatic test based on separating radioactive cAMP (substrate of PDE7) from radioactive 5′-AMP (product of the enzymatic reaction) by thin-layer chromatography on polyethyleneimine (PEI) cellulose, after stopping the enzymatic reaction. The 5′-AMP is quantitatively extracted from the PEI cellulose and its radioactivity is measured using a liquid scintillation counter.
The inhibitory activity of the compounds of formula (I) on PDE7 is represented by the inhibition constant IC50, defined as the concentration of test compound (inhibitor) in the trial that can reduce the enzymatic activity of PDE7 by 50%. The lower the IC50 values, the greater the inhibitory power of the compounds.
Human PDE7 was partially purified from the cell line HUT-78 by following a method similar to that described by Bloom and Beavo (Proc. Natl. Acad. Sci. USA, (1996) 93, 14188-14192). The enzyme preparation obtained is stored at −80° C. in a buffer containing 20 mM of Tris-HCl (pH 7.0), 5 mM of MgCl2, 4 mM of EDTA, 1 mM of dithiothreitol and 20% glycerol. […] The Michaelis constant (Km) of PDE7 for cAMP, measured using the radiochemical test described hereinbelow, is 21 nM.
The compounds of formula (I) to be tested as PDE7 inhibitors are dissolved in DMSO to a concentration of 10 mM. These solutions are then serially diluted in DMSO to obtain solutions of desired concentrations. These solutions are then diluted 20-fold in the test buffer to give solutions containing 5% DMSO. These solutions are finally diluted 5-fold in the enzymatic test.
The test is performed in 1.5-ml Eppendorf tubes containing 40 mM of Tris-HCl (pH 7.5), 15 mM of MgCl2, 1 mM of EGTA, 0.5 mg/ml of bovine serum albumin, 0.25 μCi of [^3H]-cAMP (corresponding to a cAMP concentration of between 60 and 100 nM), 10 μM of rolipram and PDE7 in a final volume of 100 μl. The test is performed in the absence (control sample) or in the presence (treated sample) of compounds tested as PDE7 inhibitors. The final concentration of DMSO in the test is […]. The reaction is initiated by adding enzyme and the samples are maintained at room temperature for 30 minutes. The enzymatic dilution is adjusted so as to obtain a degree of conversion of 10% to 15%. The enzymatic reaction is stopped by immersing the stoppered Eppendorf tubes in a water bath at 100° C. for 3 minutes. Blanks (reaction stopped immediately after adding the enzyme) are included in each experiment. The samples are then centrifuged at 10 000×g for 1 minute and a 10 μl aliquot portion of the supernatant is deposited 2 cm from the bottom edge of a sheet of PEI cellulose onto which 10 μg of cAMP and 10 μg of 5′-AMP have previously been deposited. To facilitate the migration and the subsequent cutting of the PEI cellulose strips containing the 5′-AMP, 18 migration paths 1 cm wide are delimited per plate by scraping the cellulose with a spatula over a width of 1 mm. The plates are developed over their entire length with a 0.30 M solution of LiCl in water by ascending chromatography. The 5′-AMP (Rf=0.20) and the cAMP (Rf=0.47) are visualized under UV light at 254 nm. The PEI cellulose bands containing the 5′-AMP are cut out and the nucleotide is extracted quantitatively into counting flasks with 2 ml of a solution containing 16 M of formic acid and 2 M of ammonium formate in water (rotary stirring for 15 minutes). After adding 10 ml of scintillation liquid (OptiPhase HiSafe 3 from Perkin-Elmer/Wallac), the radioactivity is counted using a liquid scintillation counter (Perkin-Elmer/Wallac model 1414). Each test is performed in duplicate. The radioactivity specifically associated with the 5′-AMP formed in the enzymatic reaction is obtained by subtracting the mean value of the blanks from the mean value of the controls (or of the treated samples). […]

[2] = tested on: CLL-PBMCs; details: PBMC of chronic lymphocytic leukaemia patients; cited from earlier work
[3] = tested on: PBMCs of normal individuals; details: cited from earlier work
[4] = tested on: PDE8; test: PDE8 enzymatic test equivalent to that described for PDE7; format: biochemical; details: at 0.1 μM
Experimental: as §1
The test is performed in 1.5-ml Eppendorf tubes containing 40 mM of Tris-HCl (pH 7.5), 15 mM of MgCl2, 1 mM of EGTA, 0.5 mg/ml of bovine serum albumin, 0.25 μCi of [^3H]-cAMP (corresponding to a cAMP concentration of between 60 and 100 nM), 10 μM of rolipram and PDE7 in a final volume of 100 μl. The test is performed in the absence (control sample) or in the presence (treated sample) of compounds tested as PDE7 inhibitors. The final concentration of DMSO in the test is 2%. […] The PEI cellulose bands containing the 5′-AMP are cut out and the nucleotide is extracted quantitatively into counting flasks with 2 ml of a solution containing 16 M of formic acid and 2 M of ammonium formate in water (rotary stirring for 15 minutes). After adding 10 ml of scintillation liquid (OptiPhase HiSafe 3 from Perkin-Elmer/Wallac), the radioactivity is counted using a liquid scintillation counter (Perkin-Elmer/Wallac model 1414). […]

T1 sequence (Q13946 whole entry): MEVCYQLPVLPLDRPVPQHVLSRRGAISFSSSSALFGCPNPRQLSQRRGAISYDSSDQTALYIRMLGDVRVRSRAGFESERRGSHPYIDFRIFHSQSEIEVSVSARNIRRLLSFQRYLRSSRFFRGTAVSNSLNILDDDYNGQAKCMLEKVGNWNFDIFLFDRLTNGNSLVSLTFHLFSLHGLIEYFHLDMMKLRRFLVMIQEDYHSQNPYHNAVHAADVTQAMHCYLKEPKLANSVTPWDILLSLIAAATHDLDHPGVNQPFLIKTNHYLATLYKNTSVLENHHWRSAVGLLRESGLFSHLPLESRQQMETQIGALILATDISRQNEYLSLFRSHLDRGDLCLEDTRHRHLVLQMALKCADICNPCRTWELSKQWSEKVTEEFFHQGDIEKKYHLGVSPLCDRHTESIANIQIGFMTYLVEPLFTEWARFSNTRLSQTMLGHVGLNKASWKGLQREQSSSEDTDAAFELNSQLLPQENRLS

With COc1ccc(Cn2c(=O)c3cc(OCC#N)ccc3n(C3CCSCC3)c2=O)cc1OC [Compound 11, {[3-(3,4-dimethoxybenzyl)-2,4-dioxo-1-(tetrahydro-2H-thiopyran-4-yl)-1,2,3,4-tetrahydroquinazolin-6-yl]oxy}acetonitrile] the IC50 [1] was 5.5 nM.

For Cc1ccc([N+](=O)[O-])cc1S(=O)(=O)N(C)C [BRL-50481], the “apoptosis of CLL-PBMCs” value [2] is given as “induces dose-dependent apoptosis” and the “effect on the PBMCs of normal individuals” value [3] is given as “no effect”.

COc1ccc(Cn2c(=O)c3cc(CF)ccc3n(C3CCOCC3)c2=O)cc1OC [Compound 60, 3-(3,4-dimethoxybenzyl)-6-(fluoromethyl)-1-(tetrahydro-2H-pyran-4-yl)-quinazoline-2,4(1H,3H)-dione] gave an IC50 [1] of 12 nM.

Compound COc1ccc(Cn2c(=O)c3cc(OCC#N)ccc3n(C3CCOCC3)c2=O)cc1OC [Compound 2, {[3-(3,4-dimethoxybenzyl)-2,4-dioxo-1-(tetrahydro-2H-pyran-4-yl)-1,2,3,4-tetrahydroquinazolin-6-yl]oxy}acetonitrile] has an IC50 [1] of 8.9 nM.

For COc1ccc(Cn2c(=O)c3cc(CO)ccc3n(C3CCOCC3)c2=O)cc1OC [Compound 45, 3-(3,4-dimethoxybenzyl)-6-(hydroxymethyl)-1-(tetrahydro-2H-pyran-4-yl)-quinazoline-2,4(1H,3H)-dione], the IC50 [1] was 61 nM.

With COc1ccc(Cn2c(=O)c3cc(OCC#N)ccc3n(C3CCS(=O)(=O)CC3)c2=O)cc1OC [Compound 14, {[3-(3,4-dimethoxybenzyl)-1-(1,1-dioxidotetrahydro-2H-thiopyran-4-yl)-2,4-dioxo-1,2,3,4-tetrahydroquinazolin-6-yl]oxy}acetonitrile] the IC50 [1] was 230 nM.

Compound COc1ccc(Cn2c(=O)c3cc(OCC#N)ccc3n(C3CC[S+]([O-])CC3)c2=O)cc1OC (single isomer, unassigned; isomer 1) [Compound 17, {[3-(3,4-dimethoxybenzyl)-1-(1-oxidotetrahydro-2H-thiopyran-4-yl)-2,4-dioxo-1,2,3,4-tetrahydroquinazolin-6-yl]oxy}acetonitrile (isomer 1)] has an IC50 [1] of 6.1 nM.

With COc1cc(Cn2c(=O)c3cc(OC(CF)CF)c(F)cc3n(C3CCOCC3)c2=O)ccc1OCc1ccccc1 [Compound 64, 3-[4-(benzyloxy)-3-methoxybenzyl]-6-[(1,3-difluoropropan-2-yl)oxy]-7-fluoro-1-(tetrahydro-2H-pyran-4-yl)quinazoline-2,4(1H,3H)-dione] the “inhibition of PDE8” value [4] was 59%.

Work on COc1ccc(Cn2c(=O)c3cc(OCC#N)ccc3n(C3CCOCC3)c2=O)cn1 [Compound 9, ({3-[(6-methoxypyridin-3-yl)methyl]-2,4-dioxo-1-(tetrahydro-2H-pyran-4-yl)-1,2,3,4-tetrahydroquinazolin-6-yl}oxy)acetonitrile] yielded an IC50 [1] of 16 nM.

— patent publication US8722659B2, “Quinazolinedione derivatives, preparation thereof and various therapeutic uses thereof” (Sanofi, priority 2009, dated 2014)
